The record followed here is patent US9085568B2, “Mineralocorticoid receptor antagonists” (Merck Sharp & Dohme Corp., priority 2011, dated 2015).

A value given as a limit tells only on which side of the number the result lay.

This test concerns the target T1, full-length human Mineralocorticoid Receptor (MR) (Homo sapiens, UniProt P08235).
T1 construct: host or cells: PathHunter CHO-K1 cells
T1 sequence (P08235 1-984): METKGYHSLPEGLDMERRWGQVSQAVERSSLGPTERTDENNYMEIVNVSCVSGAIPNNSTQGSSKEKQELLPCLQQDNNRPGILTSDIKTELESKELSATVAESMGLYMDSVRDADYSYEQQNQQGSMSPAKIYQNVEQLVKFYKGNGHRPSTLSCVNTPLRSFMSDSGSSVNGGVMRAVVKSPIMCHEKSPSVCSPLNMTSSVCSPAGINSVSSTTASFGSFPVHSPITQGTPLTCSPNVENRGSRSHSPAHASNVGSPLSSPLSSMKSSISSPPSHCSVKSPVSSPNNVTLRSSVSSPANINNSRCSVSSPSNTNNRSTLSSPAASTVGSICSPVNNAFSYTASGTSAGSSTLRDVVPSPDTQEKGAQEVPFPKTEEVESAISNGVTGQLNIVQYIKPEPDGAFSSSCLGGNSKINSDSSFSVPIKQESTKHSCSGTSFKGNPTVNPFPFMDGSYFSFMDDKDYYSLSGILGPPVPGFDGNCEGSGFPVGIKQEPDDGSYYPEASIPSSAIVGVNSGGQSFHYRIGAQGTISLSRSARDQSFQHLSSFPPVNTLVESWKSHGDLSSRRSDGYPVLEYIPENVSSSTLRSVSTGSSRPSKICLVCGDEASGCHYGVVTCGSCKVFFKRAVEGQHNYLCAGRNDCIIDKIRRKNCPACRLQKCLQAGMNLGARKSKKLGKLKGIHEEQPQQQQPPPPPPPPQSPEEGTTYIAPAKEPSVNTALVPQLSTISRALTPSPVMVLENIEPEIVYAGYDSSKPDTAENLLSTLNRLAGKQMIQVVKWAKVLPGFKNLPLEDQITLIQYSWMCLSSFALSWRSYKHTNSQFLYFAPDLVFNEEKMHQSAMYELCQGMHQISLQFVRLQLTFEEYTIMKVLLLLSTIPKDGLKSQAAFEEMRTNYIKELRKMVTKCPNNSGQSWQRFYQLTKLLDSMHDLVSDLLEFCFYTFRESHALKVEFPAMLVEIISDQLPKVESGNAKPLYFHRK
Put plainly: human MR NH Pro assay (PathHunter protein:protein interaction, MR antagonism). Type of test: cell-based. The settings on record: PathHunter CHO-K1 cells overexpressing human MR; aldosterone (0.3 nM), 6 hours at 37° C.; antagonism of MR binding to coactivator peptide; read-out: IC50 Rating.
Protocol: The activity of the compounds of the present invention regarding mineralocorticoid receptor antagonism was evaluated using the following assay.
The human MR NH Pro assay is a commercially available PathHunter™ Protein: Protein interaction assay (DiscoveRx; http://www.discoverx.com/nhrs/prod-nhrs.php) that measures the ability of compounds to antagonize full-length human Mineralocorticoid Receptor (MR) binding to a coactivator peptide.
3× PathHunter Detection Reagents (Cat #93-0001) (need ˜6 ml/plate). […] Control Agonist: Aldosterone: Sigma cat #A9477 • Prepare stock solution—10 μM in DMSO kept at −20° C. • for assay, dilute in assay media to 1.8 or 6 nM (6× of final concentration=about 0.3 nM to about 1.0 nM) • 5. Cell line: PathHunter CHO-K1 MR cells Cat #93-0456C2, Lot No: 09B0913, from operation liquid nitrogen stock. • 6. […] Methods: • Assay Set Up and Calculations: • 1. Cells were grown in F12+FBS+Hygromycin+pen/strep+Genetin • 2. Cells were collected with 0.05% trypsin and the cell suspension was spun and resuspended in a volume of F12+1.5% CD-FBS and counted. • 3. The cells were resuspended to 4×10^5 cells/mL. • 4. Cells were (25 μL/well) added to the wells of a 384 well plate. • 5. The plate was then incubated at 37° C. over night in a humidified incubator with 5% CO2. • 6. Test compounds were titrated starting at 4.4 mM, 10-point titration in 1:3 dilution. • 7.
5 μL of assay media was added to all wells in column 23 and 24. • 5. Plates were incubated 6 hrs at 37° C., 5% CO2. • 6. 15 μL 3× DiscoveRx detection reagent was added to each well. • 7. Plates were incubated for 1 hour at room temperature (plates stored in the dark). • 8.
In general, IC50 refers to the concentration that inhibits the measured activity by half. Regarding `COc1cc(OC)cc(-c2nnc([C@@]3(Cc4ccccc4)NC(=O)N([C@H](C)c4ccccc4)C3=O)o2)c1` (single isomer, unassigned) [Compound 22], the IC50 was 500 to 2000 nM.

For the compound `COc1cc(OC)cc(-c2n[nH]c(C3(Cc4ccccc4)OC(=O)N([C@H](C)c4ccc(F)cc4)C3=O)n2)c1` (stereo partly drawn) [Compound 1, 5-Benzyl-5-[5-(3,5-dimethoxyphenyl)-4H-1,2,4-triazol-3-yl]-3-[(1R)-1-(4-fluorophenyl)ethyl]-1,3-oxazolidine-2,4-dione], the IC50 was in the range of 500 to 2000 nM.

For `COc1cc(Cc2nnc([C@@]3(Cc4ccccc4)OC(=O)N([C@H](C)c4ccccc4)C3=O)o2)cc(OC)c1` [Compound 2, (5R)-5-Benzyl-5-[5-(3,5-dimethoxybenzyl)-1,3,4-oxadiazol-2-yl]-3-[(1R)-1-phenylethyl]-1,3-oxazolidine-2,4-dione], the IC50 was below 100 nM.

As for `C[C@H](c1ccccc1)N1C(=O)O[C@](Cc2ccccc2)(c2nnc(C3(c4cc(F)cc(F)c4)CC3)o2)C1=O` [Compound 9, (5R)-5-Benzyl-5-{5-[1-(3,5-difluorophenyl)cyclopropyl]-1,3,4-oxadiazol-2-yl}-3-[(1R)-1-phenylethyl]-1,3-oxazolidine-2,4-dione], the IC50 lay within 100 to 500 nM.

As to `COc1cc(N)cc(-c2nnc([C@@]3(Cc4ccccc4)OC(=O)N([C@H](C)c4ccccc4)C3=O)o2)c1` [Compound 10, (5R)-5-[5-(3-Amino-5-methoxyphenyl)-1,3,4-oxadiazol-2-yl]-5-benzyl-3-[(1R)-1-phenylethyl]-1,3-oxazolidine-2,4-dione], the IC50 lay in the range of 100 to 500 nM.

Turning to `C[C@H](c1ccccc1)N1C(=O)O[C@](Cc2ccccc2)(c2nnc(CC(F)(F)F)o2)C1=O` [Compound 11, (5R)-5-Benzyl-3-[(1R)-1-phenylethyl]-5-[5-(2,2,2-trifluoroethyl)-1,3,4-oxadiazol-2-yl]-1,3-oxazolidine-2,4-dione], the IC50 fell in the range of 500 to 2000 nM.

For the compound `C[C@H](c1ccccc1)N1C(=O)O[C@](Cc2ccccc2)(c2nnc(C3(C(F)(F)F)CC3)o2)C1=O` [Compound 12, (5R)-5-Benzyl-3-[(1R)-1-phenylethyl]-5-{5-[1-(trifluoromethyl)cyclopropyl]-1,3,4-oxadiazol-2-yl}-1,3-oxazolidine-2,4-dione], the IC50 lay within 500 to 2000 nM.

In the case of `C[C@H](c1ccccc1)N1C(=O)O[C@](Cc2ccccc2)(c2nnc(C3(c4ccncc4)CC3)o2)C1=O` [Compound 14, (5R)-5-Benzyl-3-[(1R)-1-phenylethyl]-5-[5-(1-pyridin-4-ylcyclopropyl)-1,3,4-oxadiazol-2-yl]-1,3-oxazolidine-2,4-dione], the IC50 was 100 to 500 nM.
